# Values joined by “and” are separate entries in the source; they are usually repeats but may differ in a detail not shown here. Equal entries are not always repeated.
# Tested on: AMO-1 xenografts
# Assay: AMO-1 xenograft efficacy (tumor volume, body weight)
# Format: in vivo, mouse
# Protocol: All animal studies were conducted in accordance with the guidelines approved by the Institutional Animal Care and Use Committees of AbbVie. The research protocol was approved by In Vivo Pharmacology at AbbVie prior to study initiation but was not publicly registered or disclosed. Female C.B-17 SCID-beige mice (AMO-1, OPM-2, NCI-H929, and OCI-AML2 xenografts) and female NSG mice (MV4-11-Red.Fluc systemic) were purchased from Charles River Laboratories (Wilmington, MA). Animals were housed in a light cycle-controlled room with HEPA filtration at 22 °C. Animals had nesting and climbing cage topper as the primary environmental enrichment. Animals were inoculated subcutaneously in the right flank with 5 × 10^6 (AMO-1, OPM-2, NCI-H929, and OCI-AML2) or intravenous (IV) with 5 × 10^6 (MV4-11-Red.Fluc). The inoculation volume (0.2 mL) comprised a 50:50 mixture of cells in growth media and Matrigel (BD Biosciences) for subcutaneous injections and 100% phosphate-buffered saline for IV administration. All cell lines used in this publication were authenticated using IDEXX for STR profiling as well as their IMPACT and human IMPACT panels for pathogen screening. Electronic calipers were used to measure the length and width of each tumor 2 to 3 times per week. Tumor volume was estimated by applying the following equation: volume = length × width^2/2. All groups remained blinded during measurements and dosing; only veterinary staff were aware of group identity. When tumors reached approximately 200 mm^3, mice were randomized by match and distributed into treatment and control groups. All xenograft trials were conducted using 5 to 10 mice per group, and all mice were ear tagged and monitored individually throughout the studies. […] Tumor burden in the systemic MV4-11-Red.Fluc experiment was measured using an IVIS® spectrum from PerkinElmer by taking the total photon flux of the entire dorsal side of an individual mouse. […] A background control mouse that was tumor naive but received D-Luciferin was placed in the upper left corner of each image. The total flux from this animal was subtracted from the total flux of each animal present in the image.
# For in vivo studies, maximal tumor growth inhibition (TGI) was calculated as the greatest treatment response using the following equation: Maximal TGI = (1 − mean tumor volume of the treated group/mean tumor volume of the vehicle control group) × 100. The tumor growth delay (TGD) percentage was determined as the percentage increase of the median time period for the treatment group to reach an arbitrary tumor volume of 1000 mm^3 relative to the vehicle control group. […] A power analysis was conducted using historical data to determine the number of animals required to yield significance of 0.05 at a 30% difference. […] Data from experiments in vivo were analyzed using the student’s t-test for TGI values and the Mann–Whitney U test for TGD using Excel and GraphPad Prism. Fisher’s exact test was used to probe significance of differences in response frequency.
# [1] = 6.25 mg/kg Q7Dx2 IV, SCID-beige female mice, Day 26
# [2] = 6.25 mg/kg Q7Dx2 IV, SCID-beige female mice, Day 28
# [3] = 6.25 mg/kg Q7Dx2 IV, SCID-beige mice, Day 13 (measure date 10/25/2017, dosing begin 10/26/2017)
# [4] = 6.25 mg/kg QDx1 IV, Day 26, n=8
# [5] = 6.25 mg/kg QDx1 IV, Day 28, n=8
# [6] = 6.25 mg/kg QDx1 IV, SCID-beige mice, Day 21
# [7] = 6.25 mg/kg QDx1 IV, SCID-beige mice, Day 23
# [8] = 6.25 mg/kg QDx1 IV, SCID-beige mice, Day 23, mean(T)/mean(C)
# [9] = 6.25 mg/kg QDx1 IV, SCID-beige mice, Day 23, median(T)/median(C)
smiles,measurement,setting,value
Cc1c(Cl)c2c(Cl)c(C)c1-c1c(-c3ccc(F)cc3)sc3ncnc(c13)O[C@@H](C(=O)O)Cc1cc(ccc1OCc1ccnc(-c3ccc(OC[C@H]4COCCO4)cc3)n1)OC[C@@H](CN1CCN(C)CC1)O2 [Compound A-1747745.0],"Xenograft AMO-1 (DSMZ) tumor volume Day 24, Median","6.25 mg/kg Q7Dx2 IV, SCID-beige female mice, Day 24",183.76 mm³
same,"Xenograft AMO-1 (DSMZ) tumor volume Day 26, Mean",[1],300.68 mm³
same,"Xenograft AMO-1 (DSMZ) tumor volume Day 26, Median",[1],173.91 mm³
same,"Xenograft AMO-1 (DSMZ) tumor volume Day 26, individual animals",[1],165 mm³ and 890 mm³ and 293 mm³ and 308 mm³ and 143 mm³ and 174 mm³ and 132 mm³
same,"Xenograft AMO-1 (DSMZ) (mm³) Day 28, individual animals",[2],242 mm³ and 1605 mm³ and 585 mm³ and 510 mm³ and 266 mm³ and 306 mm³ and 32 mm³
same,Xenograft AMO-1 (DSMZ) Day 28 Mean,[2],506.48 mm³
same,Xenograft AMO-1 (DSMZ) Day 28 Median,[2],305.62 mm³
same,"Xenograft AMO-1 (DSMZ) tumor volume Day 13, Mean",[3],222.44 mm³
same,"Xenograft AMO-1 (DSMZ) tumor volume Day 13, Median",[3],219.48 mm³
same,"Xenograft AMO-1 (DSMZ) tumor volume Day 13, individual animals",[3],230 mm³ and 206 mm³ and 247 mm³ and 219 mm³ (2×) and 232 mm³ and 204 mm³
same,Xenograft AMO-1 (DSMZ) (mm³) Day 32 Mean,"6.25 mg/kg Q7Dx2 IV, group mean tumor volume, Day 32",1661.51 mm³
same,Xenograft AMO-1 (DSMZ) (mm³) Day 32 Median,"6.25 mg/kg Q7Dx2 IV, group median tumor volume, Day 32",1251.91 mm³
same,Xenograft AMO-1 (DSMZ) (mm³) Day 32,"6.25 mg/kg Q7Dx2 IV, individual animal tumor volume, Day 32",1252 mm³ and 3313 mm³ and 2126 mm³ and 1223 mm³ and 2463 mm³ and 1036 mm³ and 218 mm³
same,"Xenograft AMO-1 (DSMZ) tumor volume Day 26, Mean",[4],454.97 mm³
same,"Xenograft AMO-1 (DSMZ) tumor volume Day 26, Median",[4],392.97 mm³
same,% T/C (mean) tumor volume Day 26,"6.25 mg/kg QDx1 IV, Day 26, mean(T)/mean(C)",28.88%
same,% T/C (median) tumor volume Day 26,"6.25 mg/kg QDx1 IV, Day 26, median(T)/median(C)",24.60%
same,"Xenograft AMO-1 (DSMZ) tumor volume Day 28, Mean",[5],690.68 mm³
same,"Xenograft AMO-1 (DSMZ) tumor volume Day 28, Median",[5],578.26 mm³
same,% T/C (mean) tumor volume Day 28,"6.25 mg/kg QDx1 IV, Day 28, mean(T)/mean(C)",33.71%
same,% T/C (median) tumor volume Day 28,"6.25 mg/kg QDx1 IV, Day 28, median(T)/median(C)",29.98%
same,"Xenograft AMO-1 (DSMZ) tumor volume Day 26, individual animals","6.25 mg/kg QDx1 IV, SCID-beige female mice, Day 26",386 mm³ and 701 mm³ and 245 mm³ and 206 mm³ and 598 mm³ and 235 mm³ and 868 mm³ and 400 mm³
same,"Xenograft AMO-1 (DSMZ) tumor volume Day 28, individual animals","6.25 mg/kg QDx1 IV, SCID-beige female mice, Day 28",518 mm³ and 1122 mm³ and 542 mm³ and 307 mm³ and 666 mm³ and 511 mm³ and 1246 mm³ and 614 mm³
same,"Xenograft AMO-1 (DSMZ) Day 21, Mean",[6],175.92 mm³
same,"Xenograft AMO-1 (DSMZ) Day 21, Median",[6],202.13 mm³
same,"Xenograft AMO-1 (DSMZ) (mm³) Day 21, individual animals","6.25 mg/kg QDx1 IV, SCID-beige mice, Day 21, individual tumor volumes",202 mm³ (2×) and 236 mm³ and 49 mm³ and 84 mm³ and 144 mm³ and 230 mm³ and 260 mm³
same,"% T/C (mean), Tumor Volume Day 21","6.25 mg/kg QDx1 IV, SCID-beige mice, Day 21, mean(T)/mean(C)",27.52%
same,"% T/C (median), Tumor Volume Day 21","6.25 mg/kg QDx1 IV, SCID-beige mice, Day 21, median(T)/median(C)",38.38%
same,Xenograft AMO-1 (DSMZ) Day 23 Mean,[7],218.85 mm³
same,Xenograft AMO-1 (DSMZ) Day 23 Median,[7],225.89 mm³
same,"Xenograft AMO-1 (DSMZ) (mm³) Day 23, individual animals","6.25 mg/kg QDx1 IV, SCID-beige mice, Day 23, individual tumor volumes",209 mm³ and 282 mm³ and 56 mm³ and 156 mm³ and 155 mm³ and 243 mm³ and 349 mm³ and 301 mm³
same,"% T/C (mean), body weight Day 23",[8],103.53%
same,"% T/C (mean), tumor volume Day 23",[8],20.49%
same,"% T/C (median), body weight Day 23",[9],103.53%
same,"% T/C (median), tumor volume Day 23",[9],23.21%
same,Xenograft AMO-1 (DSMZ) (mm³) Day 30 (individual animals),"6.25 mg/kg QDx1 IV, Day 30, SCID-beige female mice, tumor volume per animal",694 mm³ and 1347 mm³ and 555 mm³ and 384 mm³ and 801 mm³ and 782 mm³ and 1535 mm³ and 959 mm³
same,Xenograft AMO-1 (DSMZ) (mm³) Day 30 Mean,"6.25 mg/kg QDx1 IV, Day 30, group mean",882.20 mm³
same,Xenograft AMO-1 (DSMZ) (mm³) Day 30 Median,"6.25 mg/kg QDx1 IV, Day 30, group median",791.67 mm³
same,Xenograft AMO-1 (DSMZ) (mm³) Day 34 (individual animals),"6.25 mg/kg QDx1 IV, Day 34, SCID-beige female mice, tumor volume per animal",2680 mm³ and 1975 mm³ and 1296 mm³ and 886 mm³ and 1388 mm³ and 1259 mm³ and 1718 mm³ and 1542 mm³

# From paper PMC10600239, “Selective MCL-1 inhibitor ABBV-467 is efficacious in tumor models but is associated with cardiac troponin increases in patients” (Communications Medicine, 2023)
